Data set [1] in a line: accelerated stability test of polymorphs. The data set is classed as physicochemical. The settings on record: accelerated test 40±2° C., 75%±5% RH, 6 months; for purity after accelerated test: compared to freshly prepared (0 Month).
Data set [2] is described as follows: hygroscopicity test of polymorphs (Chinese Pharmacopoeia 2010 edition, Appendix XIX J). Format: physicochemical. As to conditions: 25° C.±1° C., saturated ammonium sulfate solution, 24 h. On the procedure:
The test was performed according to the guiding principles of drug's hygroscopic test (Chinese Pharmacopoeia 2010 edition, Appendix XIX J).
1. Take 4 dry glass weighing bottles with lids (60 mm of the outer diameter and 30 mm of the height). On the day before the test, the bottles were placed in a glass dryer (“constant temperature and humidity dryer”) where a saturated ammonium sulfate solution was placed, and the glass dryer was placed in the bottom of a constant temperature and humidity box at 25° C.±1° C.
2. After each empty weighing bottle together with its lid were placed in the “constant temperature and humidity dryer” for 24 hours, stabilize precisely the weight of each unit by a set (one weighing bottle+its lid), recorded as m1.
3. A polymorph II sample was taken and tiled in a glass weighing bottle which had been weighed (the thickness of a sample was about 1 mm), and the bottle was covered, the weight of each weighing bottle (one weighing bottle+its lid+the sample) was precisely weighed, recorded as m2.
3. Each sample was placed in the “constant temperature and humidity dryer” for 24 h, and then the weight of each weighing bottle (one weighing bottle+its lid+the sample) was precisely weighed, recorded as m3.
4. The percentage of hygroscopicity weight increase of each sample was calculated (the formula was shown as follows), and it is defined as no or almost no hygroscopicity when the percentage of hygroscopicity weight increase is less than 0.2%. It is defined as slightly hygroscopicity when the percentage of hygroscopicity weight increase is equal or greater than 0.2%, but less than 2.0%. the percentage of weight increase=[(m3−m2)/(m2−m1)]×100%

Consider `Cl.Cl.[2H]C1([2H])CN(c2ccc(Nc3nccc(-c4ccc(C(=O)NCC#N)cc4)n3)cc2)CC([2H])([2H])O1` [polymorph I, N-(cyanomethyl)-4-(2-((4-(2′,2′,6′,6′-d4-morpholino)phenyl)amino)pyrimidin-4-yl)benzamide dihydrochloride], for which, in data set [1], the degradated impurity result is on record as “no obvious degradated impurity was observed”, the “stability of crystal form” value is “very stable” and the “purity after accelerated test” value is listed as “above 99%”. Further, the hygroscopicity result in data set [2] is recorded as “slightly hygroscopicity (slightly hygroscopicity when the percentage of hygroscopicity weight increase is equal or greater than 0.2%, but less than 2.0%)”.
Take `Cl.Cl.O.[2H]C1([2H])CN(c2ccc(Nc3nccc(-c4ccc(C(=O)NCC#N)cc4)n3)cc2)CC([2H])([2H])O1` [polymorph II, N-(cyanomethyl)-4-(2-((4-(2′,2′,6′,6′-d4-morpholino)phenyl)amino)pyrimidin-4-yl)benzamide dihydrochloride monohydrate]: in data set [1], the degradated impurity result is “no obvious degradated impurity was observed”, the “stability of crystal form” value is on record as “very stable” and the “purity after accelerated test” value is given as “above 99%”. Also, in data set [2], the hygroscopicity result is reported as “slightly hygroscopicity (slightly hygroscopicity when the percentage of hygroscopicity weight increase is equal or greater than 0.2%, but less than 2.0%)” and the “percentage of weight increase” value amounted to 0.24%.
`Cl.[2H]C1([2H])CN(c2ccc(Nc3nccc(-c4ccc(C(=O)NCC#N)cc4)n3)cc2)CC([2H])([2H])O1` [polymorph III, N-(cyanomethyl)-4-(2-((4-(2′,2′,6′,6′-d4-morpholino)phenyl)amino)pyrimidin-4-yl)benzamide monohydrochloride]: in data set [1], the degradated impurity entry is given as “no obvious degradated impurity was observed”, the “stability of crystal form” value is given as “very stable” and the “purity after accelerated test” value is “above 99%”.
The corresponding values for `[2H]C1([2H])COCC([2H])([2H])N1c1ccc(Nc2nccc(-c3ccc(C(=O)NCC#N)cc3)n2)cc1` [polymorph V, N-(cyanomethyl)-4-(2-((4-(2′,2′,6′,6′-d4-morpholino)phenyl)amino)pyrimidin-4-yl)benzamide] are “no obvious degradated impurity was observed”, “very stable” and “above 99%”.

Values taken from US10377725B2, “Phenyl amino pyrimidine compound or polymorph of salt thereof” (Suzhou Zelgen Biopharmaceuticals Co., Ltd., priority 2015, dated 2019).
